In ChEMBL document CHEMBL1201862, “PubChem BioAssay data set” (2004):
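How tested: cells in 96-well plates exposed to compound for 48 hours at five concentrations. GI50 is the concentration that inhibits growth by half.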 The source made the active and inactive calls. Cut-off read from the data, not from the text of the source: active = GI50 up to about 1.1 µM and inactive = higher.

Experiments:
Assay in all cases: NCI anticancer screen, dose series, 48 h
M14 = test system: M14
OVCAR-8 = test system: OVCAR-8
OVCAR-4 = test system: OVCAR-4
SR = test system: SR
NCI-H23 = test system: NCI-H23
COLO 205 = test system: COLO 205
UACC-257 = test system: UACC-257
MOLT-4 = test system: MOLT-4
LOX IMVI = test system: LOX IMVI
U-251 = test system: U-251
NCI-H522 = test system: NCI-H522
NCI/ADR-RES = test system: NCI/ADR-RES
ACHN = test system: ACHN
SW-620 = test system: SW-620
RXF 393 = test system: RXF 393
HOP-92 = test system: HOP-92
HL-60 = test system: HL-60
RPMI-8226 = test system: RPMI-8226
SK-MEL-2 = test system: SK-MEL-2

Measured: GI50

O=C(CCC(C(=O)OCc1ccccc1)C(=O)OCc1ccccc1)Nc1ccc(OCc2ccccc2)cc1
inactive: M14 > 100 µM | OVCAR-8 14.7 µM | OVCAR-4 47.1 µM | SR 99.1 µM | NCI-H23 40.3 µM | COLO 205 41 µM | UACC-257 > 100 µM | MOLT-4 55.6 µM | LOX IMVI > 100 µM | U-251 38.3 µM | NCI-H522 > 100 µM | NCI/ADR-RES 60.4 µM | ACHN > 100 µM | SW-620 > 100 µM | RXF 393 49.8 µM | HOP-92 > 100 µM | HL-60 > 100 µM

CCC(=O)C1(c2ccccc2)CCN(C)CC1
inactive: M14 > 100 µM | OVCAR-8 > 100 µM | OVCAR-4 > 100 µM | SR > 100 µM | NCI-H23 > 100 µM | COLO 205 > 100 µM | UACC-257 > 100 µM | MOLT-4 > 100 µM | U-251 > 100 µM | NCI/ADR-RES > 100 µM | RPMI-8226 > 100 µM | ACHN > 100 µM | SW-620 > 100 µM | RXF 393 > 100 µM | HOP-92 > 100 µM | HL-60 > 100 µM

CSc1nc(C)c2c(n1)N(c1ccc(Cl)cc1)CC2
inactive: M14 > 100 µM | SK-MEL-2 > 100 µM | OVCAR-8 > 100 µM | OVCAR-4 61.4 µM | SR > 100 µM | NCI-H23 > 100 µM | COLO 205 > 100 µM | UACC-257 > 100 µM | MOLT-4 > 100 µM | LOX IMVI > 100 µM | U-251 > 100 µM | NCI-H522 > 100 µM | NCI/ADR-RES > 100 µM | RPMI-8226 > 100 µM | ACHN > 100 µM | SW-620 > 100 µM | RXF 393 > 100 µM | HOP-92 > 100 µM

O=C1C(Cl)=C(Cl)C(=O)C(CCNc2nccs2)=C1Cl
inactive: M14 20.2 µM | SK-MEL-2 27.6 µM | OVCAR-8 29.5 µM | OVCAR-4 > 100 µM | SR 47.2 µM | NCI-H23 31.2 µM | COLO 205 32.8 µM | UACC-257 21.1 µM | MOLT-4 51.4 µM | U-251 36.3 µM | NCI-H522 13.1 µM | NCI/ADR-RES 25.5 µM | ACHN 27.4 µM | SW-620 29.4 µM | RXF 393 22.4 µM | HOP-92 22.1 µM | HL-60 43.7 µM
